Source: patent US20160192641A1, “STABLE EMULSION FORMULATION HINDERING INTERACTION ACROSS THE WATER-OIL INTERFACE” (Dow AgroSciences LLC, priority 2007, published 2016)

Source text: For a given oil phase which is often designed to meet specific market, customer, or application needs, actives or other components in aqueous phase can form and grow large crystals in oil phase due to high solubilities and Oswald Ripening, and result in emulsion destabilization.

## O=C(Nc1ccc(F)cc1F)c1cccnc1Oc1cccc(C(F)(F)F)c1 [diflufenican]
  solubility in methyl soyate: > 1 % by wt

## COc1cnc(OC)n2nc(NS(=O)(=O)c3c(OCC(F)F)cccc3C(F)(F)F)nc12 [penoxsulam]
  solubilities in acetochlor: > 1000 ppm
